Values quoted from earlier work as cited in patent US4820521A, “Sustained absorption pharmaceutical composition” (priority 1983, dated 1989).

Columns and labels:
[1] = human, in vivo
involuntary muscle = conditions: versus theobromine and caffeine
[2] = versus caffeine

In the case of `Cn1c(=O)c2[nH]cnc2n(C)c1=O` [Theophylline, 1,3-dimethylxanthine], the apparent biological half-life [1] is given as 4-9 hours, the “relaxant of involuntary muscle (in words)” value (involuntary muscle) is given as “more powerful relaxant of involuntary muscle than either theobromine or caffeine” and the “diuretic action (in words)” value [2] is given as “stronger than that of caffeine is of short duration”. For the same compound, the “minimum effective plasma concentration” value (in vivo) was “about 5 mcg/ml”, the average therapeutic concentration (plasma) was “about 10 mcg/ml” and the “therapeutic range of concentration” value (plasma) was 10 to 20 µg/mL. The “toxicity of levels above 20 mcg/ml” value (plasma levels above 20 mcg/ml) was “toxic” and the “effect of levels below 10 mcg/ml” value (plasma levels below 10 mcg/ml) was “ineffective”.
